# Test results: US20090253785A1, “Bactericide composition” (priority 2007, published 2009)
# Tests used:
# Format in all cases: cell-based
# [1] = system: Staphylococcus aureus (S. aureus); assay: Quantitative test of bacterial suspension, S. aureus; settings: for Anti-bacteria ratio / Remaining bacteria: S. aureus, incubated 24 hours
# Procedure: (§1) S. aureus, E. coli, MRSA and P. acnes were respectively prepared to form a suspension. The concentration of the suspension was about 1.5×10^8 CFU/ml (density=0.5 McFarland), and then was diluted 100 times (about 1.5×10^6 CFU/ml).
# (§2) L-ascorbic acid solutions were prepared respectively in concentrations of 1 wt %, 5 wt %, 10 wt %, 15 wt %, 20 wt %, 25 wt % and 30 wt %. The different concentrations of L-ascorbic acid solutions were used as a test. A hydrochloric acid solution and distilled water were used respectively as a positive control and a negative control, and the pH value of the hydrochloric acid solution was the same of the pH value of the 25 wt % L-ascorbic acid solution.
# (§3) 1 ml bacterial suspension was added to a 9 ml L-ascorbic acid solution for testing, and equal amounts of the bacterial suspension were added respectively to the positive control of 9 ml hydrochloric acid solution and the negative control of 9 ml distilled water, and then all solutions were incubated for 24 hours.
# (§4) After incubating for 24 hours, all the solutions were series diluted, until diluted 1000 times to form a series of dilution solutions.
# (§5) To calculate bacteria remaining in the solutions, 0.2 ml of each series of dilution solutions were cultured respectively on Petri dishes and repeated twice.
# (§6) Each Petri dish was cultured in an incubator at 35±2° C. for 1˜2 days (S. aureus, E. coli) or for 2˜4 days (MRSA and P. acnes) to observe bacteria growth on Petri dish and the bacteria were counted.
# (§7) Anti-bacterial ratio (%)=[(remaining bacteria of controls−remaining bacteria of test)/remaining bacteria of controls]×100%
# [2] = system: Escherichia coli (E. coli); assay: Quantitative test of bacterial suspension, E. coli; settings: for Anti-bacteria ratio / Remaining bacteria: E. coli, incubated 24 hours
# Procedure: as §1, §2, §3, §4, §5, §6, §7
# [3] = system: Methicillin-resistant Staphylococcus aureus (MRSA); assay: Quantitative test of bacterial suspension, MRSA; settings: for Anti-bacteria ratio / Remaining bacteria: MRSA, incubated 24 hours
# Procedure: as §1, §2, §3, §4, §5, §6, §7
# [4] = system: Propionibacterium acnes (P. acnes); assay: Quantitative test of bacterial suspension, P. acnes; settings: for Anti-bacteria ratio / Remaining bacteria: P. acnes, incubated 24 hours
# Procedure: as §1, §2, §3, §4, §5, §6, §7
# [5] = positive control solution, pH 1.68
# [6] = 1 wt % to 30 wt % solution, incubating for 24 hours
smiles,measurement,setting,value
"Cl [Hydrochloric acid, reference compound]",Anti-bacteria ratio,[1]; [5],99.99%
same,Remaining bacteria,[1]; [5],18 CFU/mL
same,Anti-bacteria ratio,[2]; [5],100%
same,Remaining bacteria,[2]; [5],0 CFU/mL
O=C1O[C@H]([C@@H](O)CO)C(O)=C1O [L-ascorbic acid],remaining S. aureus found,"[1]; 15 wt % to 30 wt % solution, incubating for 24 hours",no remaining
same,Anti-bacteria ratio,"[1]; 1% solution, pH 2.70",99.72%
same,Remaining bacteria,"[1]; 1% solution, pH 2.70",2.5 × 10^4 CFU/mL
same,Anti-bacteria ratio,"[1]; 5% solution, pH 2.28",99.97%
same,Remaining bacteria,"[1]; 5% solution, pH 2.28",3.0 × 10^3 CFU/mL
same,Anti-bacteria ratio,"[1]; 10% solution, pH 2.05",99.99%
same,Remaining bacteria,"[1]; 10% solution, pH 2.05",2.0 × 10^2 CFU/mL
same,Anti-bacteria ratio,"[1]; 15% solution, pH 1.93",100%
same,Remaining bacteria,"[1]; 15% solution, pH 1.93",0 CFU/mL
same,Anti-bacteria ratio,"[1]; 20% solution, pH 1.80",100%
same,Remaining bacteria,"[1]; 20% solution, pH 1.80",0 CFU/mL
same,Anti-bacteria ratio,"[1]; 25% solution, pH 1.68",100%
same,Remaining bacteria,"[1]; 25% solution, pH 1.68",0 CFU/mL
same,Anti-bacteria ratio,"[1]; 30% solution, pH 1.59",100%
same,Remaining bacteria,"[1]; 30% solution, pH 1.59",0 CFU/mL
same,remaining E. coli found in the Petri dishes,[2]; [6],no remaining
same,Anti-bacteria ratio,"[2]; 1% solution, pH 2.70",100%
same,Remaining bacteria,"[2]; 1% solution, pH 2.70",0 CFU/mL
same,Anti-bacteria ratio,"[2]; 5% solution, pH 2.28",100%
same,Remaining bacteria,"[2]; 5% solution, pH 2.28",0 CFU/mL
same,Anti-bacteria ratio,"[2]; 10% solution, pH 2.05",100%
same,Remaining bacteria,"[2]; 10% solution, pH 2.05",0 CFU/mL
same,Anti-bacteria ratio,"[2]; 15% solution, pH 1.93",100%
same,Remaining bacteria,"[2]; 15% solution, pH 1.93",0 CFU/mL
same,Anti-bacteria ratio,"[2]; 20% solution, pH 1.80",100%
same,Remaining bacteria,"[2]; 20% solution, pH 1.80",0 CFU/mL
same,Anti-bacteria ratio,"[2]; 25% solution, pH 1.68",100%
same,Remaining bacteria,"[2]; 25% solution, pH 1.68",0 CFU/mL
same,Anti-bacteria ratio,"[2]; 30% solution, pH 1.59",100%
same,Remaining bacteria,"[2]; 30% solution, pH 1.59",0 CFU/mL
same,remaining MRSA found,"[3]; 5 wt % to 30 wt % solution, incubating for 24 hours",no remaining
same,Anti-bacteria ratio,"[3]; 1% solution, pH 2.70",99.99%
same,Remaining bacteria,"[3]; 1% solution, pH 2.70",2.0 × 10^3 CFU/mL
same,Anti-bacteria ratio,"[3]; 5% solution, pH 2.28",100%
same,Remaining bacteria,"[3]; 5% solution, pH 2.28",0 CFU/mL
same,Anti-bacteria ratio,"[3]; 10% solution, pH 2.05",100%
same,Remaining bacteria,"[3]; 10% solution, pH 2.05",0 CFU/mL
same,Anti-bacteria ratio,"[3]; 15% solution, pH 1.93",100%
same,Remaining bacteria,"[3]; 15% solution, pH 1.93",0 CFU/mL
same,Anti-bacteria ratio,"[3]; 20% solution, pH 1.80",100%
same,Remaining bacteria,"[3]; 20% solution, pH 1.80",0 CFU/mL
same,Anti-bacteria ratio,"[3]; 25% solution, pH 1.68",100%
same,Remaining bacteria,"[3]; 25% solution, pH 1.68",0 CFU/mL
same,Anti-bacteria ratio,"[3]; 30% solution, pH 1.59",100%
same,Remaining bacteria,"[3]; 30% solution, pH 1.59",0 CFU/mL
same,remaining P. acnes found in the Petri dishes,[4]; [6],no remaining
same,Anti-bacteria ratio,"[4]; 1% solution, pH 2.70",100%
same,Remaining bacteria,"[4]; 1% solution, pH 2.70",0 CFU/mL
same,Anti-bacteria ratio,"[4]; 5% solution, pH 2.28",100%
same,Remaining bacteria,"[4]; 5% solution, pH 2.28",0 CFU/mL
same,Anti-bacteria ratio,"[4]; 10% solution, pH 2.05",100%
same,Remaining bacteria,"[4]; 10% solution, pH 2.05",0 CFU/mL
same,Anti-bacteria ratio,"[4]; 15% solution, pH 1.93",100%
same,Remaining bacteria,"[4]; 15% solution, pH 1.93",0 CFU/mL
same,Anti-bacteria ratio,"[4]; 20% solution, pH 1.80",100%
same,Remaining bacteria,"[4]; 20% solution, pH 1.80",0 CFU/mL
same,Anti-bacteria ratio,"[4]; 25% solution, pH 1.68",100%
same,Remaining bacteria,"[4]; 25% solution, pH 1.68",0 CFU/mL
same,Anti-bacteria ratio,"[4]; 30% solution, pH 1.59",100%
same,Remaining bacteria,"[4]; 30% solution, pH 1.59",0 CFU/mL
